The text below walks through data of BindingDB's records for doi:10.1002/(SICI)1098-2396(199702)25:2 (University of Toronto, 1997).

This test addresses D(2) dopamine receptor (Mus musculus, UniProt P61168).

Chain of D(2) dopamine receptor (P61168 whole entry): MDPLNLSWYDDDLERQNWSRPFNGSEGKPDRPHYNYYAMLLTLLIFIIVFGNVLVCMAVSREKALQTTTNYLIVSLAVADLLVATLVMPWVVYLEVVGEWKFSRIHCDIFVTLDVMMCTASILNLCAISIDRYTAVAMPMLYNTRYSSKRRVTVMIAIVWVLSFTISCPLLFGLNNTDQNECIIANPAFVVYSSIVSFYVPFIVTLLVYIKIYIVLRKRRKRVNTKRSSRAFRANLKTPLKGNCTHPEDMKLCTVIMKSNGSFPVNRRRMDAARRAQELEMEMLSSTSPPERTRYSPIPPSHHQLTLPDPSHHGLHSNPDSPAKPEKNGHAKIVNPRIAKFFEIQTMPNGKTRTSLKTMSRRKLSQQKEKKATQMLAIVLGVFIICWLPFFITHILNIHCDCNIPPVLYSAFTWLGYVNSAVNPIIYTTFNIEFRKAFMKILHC

As usually defined, the Ki is a measure of affinity in units of concentration, obtained from inhibition or displacement. Low values mean a stronger hold on the target, high ones a looser hold on the target. As for `CCN1CCC[C@H]1CNC(=O)c1cc(S(N)(=O)=O)ccc1OC` [Sulpiride-S], the Ki came to 1470 nM. In other words, the single-digit micromolar range.

`CCN1CCC[C@@H]1CNC(=O)c1cc(S(N)(=O)=O)ccc1OC` [Sulpiride-R]: the Ki was 1060 nM.
